From patent EP0454459A2, “Sulfonylalkanoic acid amide derivatives” (TAISHO PHARMACEUTICAL CO. LTD, priority 1990, dated 1991)

Legend:
[1] = test system: male Wistar rats; assay: Inhibition test of the radiofrequency decerebrate rigidity; assay type: in vivo; conditions: inhibition time of hindlimb rigidity, intravenously, 5 mg/kg, dissolved in propylene glycol
Protocol: The rigidity animals were prepared according to the method of Ono et al. [Gen. Pharm., vol. 18, pages 57 - 59 (1987)].
Four male Wistar rats weighing 250 to 350 g were used for each group. The animals were anesthetized with ethyl ether and fixed on a brain stereotaxic apparatus to break the midbrain bilaterally (APO, V-3, L±1.5). Rigidity occurred gradually in the hindlimbs after discontinuation of ethyl ether anesthesia. The test drugs dissolved in propylene glycol were administered intravenously in a dose of 5 mg/kg (0.1 ml per 100 g of rat) to determine the inhibition time of the rigidity.

[2] = test system: male Wistar rats; assay: Inhibition test of anemic decerebrate rigidity; assay type: in vivo; conditions: inhibition time of forelimb rigidity, intravenously, 5 mg/kg, dissolved in polyethlene glycol 400
Protocol: The rigidity animals were prepared according to the method of Fukuda et al. [Japanese J. Pharmacol., vol. 24, pages 810 - 813 (1974)].
Four male Wistar rats weighing 250 to 350 g were used for each group.
The animal was incised on the cervical region under the ethyl ether anesthesia, and the common carotid arteries were ligated bilaterally. A trephined opening was made in the occipital bone and the basilar artery was coagulated using a bipolar electro-coagulator. Marked rigidity occurred on the forelimbs after discontinuation of the ethyl ether anesthesia. The test drugs dissolved in polyethlene glycol 400 were each administered intravenously in a dose of 5 mg/kg (0.1 ml per 100 g of rat) to determine the inhibition time of the rigidity.

[3] = test system: male ICR mice; assay: Straub tail test (morphine-induced tail elevation); assay type: in vivo; conditions: orally 100 mg/kg, 15 mg/kg morphine hydrochloride s.c. after 15 minutes, tail elevation determined after 30 minutes, positive when angle less than 45°
Protocol: The test was carried out according to the method of Ellis et al. [Neuropharmacology, vol. 13, pages 211 - 214 (1974)]. Five male ICR mice weighing 20 to 30 g were used for each group. The test drugs suspended in 0.4% aqueous carboxymethylcellulose solution were administered orally in a dose of 100 mg/kg (0.1 ml per 10 g of mouse). After 15 minutes, 15 mg/kg of morphine hydrochloride was administered subcutaneously, and after 30 minutes, the tail elevation was determined. The muscle relaxation activity was defined as positive when the angle of tail elevation from the horizontal was less than 45°. As a result, the inhibition ratio of Compounds 2, 4 and 8 were each 100%.

[4] = Acute toxicity test; assay type: in vivo, ICR mice; conditions: mouse, in vivo, po; mice; p.o.; survivals observed 7 days after administration; read-out: LD₅₀ value
Protocol: (§1) Ten male ICR mice weighing 25 to 34 g were used. Compound 4 suspended in 0.4 aqueous carboxymethylcellulose solution was each administered orally to mice in a volume of 0.1 ml per 10 g of mice. The survivals were observed 7 days after administration.

[5] = test system: male ICR mice; assay: Acute toxicity test; assay type: in vivo; conditions: orally, dose of 1 g/kg, observed 7 days after administration
Protocol: as §1

| SMILES | Inhibition Time [1] [min] | Inhibition Time [2] [min] | inhibition ratio [3] [%] | LD50 at 168 h [4] [mg/kg] | death [5] |
| --- | --- | --- | --- | --- | --- |
| CC(C(=O)NC1CC1)S(=O)(=O)c1ccccc1Cl (centres unmarked) [Compound 2, N-cyclopropyl-2-(2-chlorophenylsulfonyl)propionamide] | 11.7 | 5.0 | 100 | – | – |
| CC(C(=O)NC1CC1)S(=O)(=O)c1ccccc1Br (centres unmarked) [Compound 4, N-cyclopropyl-2-(2-bromophenylsulfonyl)propionamide] | 37.0 | – | 100 | > 1000 | No death occurred |
| CC(C(=O)NC1CC1)S(=O)(=O)c1ccc(Cl)cc1Cl (centres unmarked) [Compound 8, N-cyclopropyl-2-(2,4-dichlorophenylsulfonyl)propionamide] | 78.0 | 17.7 | 100 | – | – |
| CC(C(=O)NC1CC1)S(=O)(=O)c1ccc(F)cc1Cl (centres unmarked) [Compound 11] | 24.0 | – | – | – | – |
